Measured values taken from the supplement of paper PMC11451515.

Key:
NOMO1 [1] = experiment: cell viability relative to DMSO control; higher = less cytotoxic; conditions: RPMI 5 mM glucose + 10% FBS, 48 h
Outline: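 NOMO1 or SEM (500 cells/well) or P12-Ichikawa (1000 cells/well) leukemia cells were adapted for at least four passages in each medium. They were seeded in 1536-well plates (5 μl) and pin-dosed with library compounds in DMSO over an 11-point threefold series, 47 μM to 0.79 nM. CellTiter-Glo One luminescence was read after 48 h at 37°C. Viability is the per-plate percentage relative to DMSO wells, with cell-free wells as background.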

P12-Ichikawa = experiment: AUC of viability dose-response curve (% viability x log10 dose units); higher = less sensitive; conditions: 48 h
Outline: (§1)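 Leukemia cells adapted to each medium were seeded in 1536-well plates (500 or 1000 cells/well) and given library compounds in DMSO for 48 h at 37°C. The 11 threefold doses spanned 47 μM to 0.79 nM, and CellTiter-Glo One luminescence was normalised per plate to DMSO and cell-free wells before four-parameter log-logistic fitting on log10 dose. Area under the curve was integrated with the trapezoidal rule, scaling curves above full viability and removing curves that failed quality control.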

SEM cells = experiment: as above; conditions: 48 h
Outline: as §1

NOMO1 [2] = experiment: as above; conditions: 48 h
Outline: as §1

[3] = RPMI 5 mM glucose + 10% dialyzed FBS

Structure (SMILES) | cell viability (NOMO1 [1]; 0.000781 µM) [%] | cell viability (NOMO1 [1]; 0.00234 µM) [%] | cell viability (NOMO1 [1]; 0.00702 µM) [%] | cell viability (NOMO1 [1]; 0.0211 µM) [%] | cell viability (NOMO1 [1]; 0.0632 µM) [%] | cell viability (NOMO1 [1]; 0.19 µM) [%] | cell viability (NOMO1 [1]; 0.569 µM) [%] | cell viability (NOMO1 [1]; 1.71 µM) [%] | cell viability (NOMO1 [1]; 5.12 µM) [%] | cell viability (NOMO1 [1]; 15.4 µM) [%] | cell viability (NOMO1 [1]; 46.1 µM) [%] | AUC of viability dose-response curve (P12-Ichikawa; HPLM + 10% dialyzed FBS) | AUC of viability dose-response curve (P12-Ichikawa; RPMI 5 mM glucose + 10% FBS) | AUC of viability dose-response curve (P12-Ichikawa; [3]) | AUC of viability dose-response curve (SEM cells; HPLM + 10% dialyzed FBS) | AUC of viability dose-response curve (SEM cells; RPMI 5 mM glucose + 10% FBS) | AUC of viability dose-response curve (SEM cells; [3]) | AUC of viability dose-response curve (NOMO1 [2]; HPLM + 10% dialyzed FBS) | AUC of viability dose-response curve (NOMO1 [2]; RPMI 5 mM glucose + 10% FBS) | AUC of viability dose-response curve (NOMO1 [2]; [3])
NC(=O)c1cnc(-c2ccc(C3(N)CCC3)cc2)c(-c2ccccc2)c1 | 119 | 117 | 126 | 117 | 136 | 122 | 128 | 132 | 127 | 131 | 76.9 | 428 | 448 | 432 | 400 | 396 | 394 | 428 | 468 | 460
COc1cccc(Nc2c(C(N)=O)cnc3c(C)cc([S+](=O)([O-])c4cccc(C(=O)N(C)C)c4)cc23)c1 |  |  |  |  |  |  |  |  |  |  |  | 470 | 472 | 469 | 459 | 466 | 468 | 465 | 472 | 469
Clc1ccccc1C(c1ccccc1)(c1ccccc1)n1cccn1 |  |  |  |  |  |  |  |  |  |  |  | 470 | 462 | 470 | 467 | 456 | 425 | 454 | 445 | 457
CN1\N=N/C2=C(N=C[N]2C1=O)C(N)=O |  |  |  |  |  |  |  |  |  |  |  | 466 | 466 | 452 | 331 | 318 | 306 | 445 | 458 | 450
